Literature values in US7968712B2, “Process for the resolution of zopiclone and intermediate compounds” (Esteve Quimica, S.A., priority 2007, dated 2011).

Tests used:
[1] = compared with racemic zopiclone
[2] = compared with racemic zopiclone; remark: listed apart in the source

Row | Compound | toxicity relative to the racemate [1] | activity relative to the racemate [2]
1 | CN1CCN(C(=O)O[C@@H]2c3nccnc3C(=O)N2c2ccc(Cl)cn2)CC1 (single isomer, unassigned) [laevorotatory isomer] | more toxic than the racemate | almost inactive
2 | CN1CCN(C(=O)O[C@H]2c3nccnc3C(=O)N2c2ccc(Cl)cn2)CC1 [dextrorotatory enantiomer, eszopiclone] | lower toxicity than that of the racemate | 
